Laboratory results reported in ChEMBL document CHEMBL3137356, “MMV Box Cryptosporidium parvum screening set”.

Test system: Cryptosporidium parvum
Test: MMV: Cryptosporidium parvum oocysts (Iowa Strain) were prepared for use by treatment with 10 mM HCl (37 degrees C, 10 min) followed by 2 mM sodium taurocholate in phosphate-buffered saline (PBS) with Ca2+ and Mg2+ (16 degrees C, 10 min) in order to stimulate excystation. The high-throughput screen was carried out by inoculating >90% confluent human ileocecal adenocarcinoma (HCT-8) cells (ATCC) with ~5.5 x 10^3 primed oocysts per well. Experimental compounds or DMSO (vehicle) were added three hours after infection, and cells were incubated for 48 hours.
Format: functional

First: CCOc1cc(CNC(C)C(O)c2ccccc2)cc(Cl)c1OCC (centres undefined)
Second: CCOc1c(Cl)cc(CNC(C)C(O)c2ccccc2)cc1OC (centres undefined)
The Inhibition of the first is higher: 29.95% for the first, -2.917% for the second.

First: C[n+]1c2ccccc2nc2ccc(NCCO)cc21
Second: COc1cccc(Nc2nc(NCCO)c3ccccc3n2)c1.Cl
The Inhibition of the first is lower: -27.1% for the first, 65.39% for the second.

Going from `Cc1cc(NC(=O)c2cccc(C(F)(F)F)c2)n(-c2nc(-c3ccc4c(c3)OCO4)cs2)n1` to `O=C(CSc1ccc2nnc(-c3cccc(F)c3)n2n1)Nc1ccc2c(c1)OCO2`, the Inhibition rises from -22.88% to -19.97%.

Going from `Cc1cccc(-n2ncc3c(O)nc(-n4nc(C)cc4NC(=O)c4cc5ccccc5o4)nc32)c1` to `O=C(Nc1ccccc1O)c1ccc(-c2ccc(Cl)cc2Cl)o1`, the Inhibition falls from 82.48% to -8.773%.

First: O=C(Nc1ccccc1O)c1ccc(Oc2cccc(C(=O)Nc3ccccc3O)c2)cc1
Second: COc1ccc(C(=O)Nc2ccc(Cl)cc2C(=O)Nc2ccncc2)cc1
The Inhibition of the first is higher: -14.93% for the first, -23.38% for the second.

First: Cc1ccc(-c2cc3c(nn2)-c2ccccc2C3=O)cc1
Second: Cc1ccc(Nc2nc(-c3ccccn3)cs2)cc1
The Inhibition of the first is lower: -55.29% for the first, -19.75% for the second.

Going from `Oc1ccccc1CN1CCC2(CCCN(Cc3ccccc3F)C2)C1` (centres undefined) to `COc1cccc(O)c1CN1CCC2(CCCN(Cc3ccc(F)cc3)C2)C1` (centres undefined), the Inhibition rises from -2.723% to 46%.

Going from `Cl.N=c1n(CCN2CCCCC2)c2ccccc2n1CC(O)c1cccc(Br)c1` (centres undefined) to `CCN(CC)CCn1c(=N)n(CC(O)c2ccc(Cl)c(Cl)c2)c2ccccc21.Cl` (centres undefined), the Inhibition rises from 3.872% to 14.91%.

Going from `Cc1ccc(-c2cc(C(=O)Nc3ccc(S(=O)(=O)N4CCCCC4)cc3)[nH]n2)c(O)c1` to `COc1ccc(C(=O)Nc2ccc3nc(N4CCCCC4)cc(C)c3c2)cc1OC`, the Inhibition rises from -59.17% to 6.852%.

Going from `O=C(NCc1ccco1)C1CCN(S(=O)(=O)c2ccc(Cl)cc2)CC1` to `O=C(CCc1ccco1)NC1CCN(CC2(c3ccc(Cl)cc3)CCC2)CC1`, the Inhibition rises from -53.31% to -27.18%.

Compared with `COCCNCC(O)Cn1c2ccc(Cl)cc2c2cc(Cl)ccc21` (centres undefined), `OC(CNC1CCCC1)Cn1c2ccccc2c2ccccc21` (centres undefined) is lower in Inhibition: -20.11% for the first, -40.56% for the second.

Compared with `COc1ccc(N2CCN(C(CNC(=O)C3CCCCC3)c3ccc4c(c3)OCO4)CC2)cc1` (centres undefined), `COc1ccccc1N1CCN(C(CNS(=O)(=O)c2ccc(Cl)cc2)c2cccnc2)CC1` (centres undefined) is higher in Inhibition: -25.24% for the first, 38.78% for the second.

Going from `FC(F)(F)c1ccc(Nc2nnnc3ccccc23)cc1` to `FC(F)(F)c1cccc(Nc2nc(-c3ccccc3)nc3ncccc23)c1`, the Inhibition falls from -4.73% to -10.43%.

Compared with `O=C(NC1CCN(Cc2ccccc2)CC1)c1cc(-c2ccncc2)nc2ccc(Cl)cc12`, `Cc1[nH]c(-c2ccc(F)cc2)cc1C(=O)NC1CCN(Cc2ccccc2)CC1` is lower in Inhibition: 13.62% for the first, -23.5% for the second.

First: c1ccc(-c2ccc(-c3nc4ccccc4[nH]3)cc2)cc1
Second: CCOc1cccc(C(=O)Nc2ccc(-c3nc4ccccc4[nH]3)cc2)c1
The Inhibition of the first is higher: 27.1% for the first, -2.618% for the second.

Compared with `CCC(C)NCC(O)(c1ccc(Cl)cc1)c1ccc(Cl)cc1` (centres undefined), `CCCCNCC(O)(c1ccc(Cl)cc1)c1ccc(Cl)cc1` is higher in Inhibition: -5.937% for the first, 9.548% for the second.

Going from `COc1cc2cc(C(=O)Nc3ccccc3)c(N)nc2cc1OC` to `COc1ccc(-c2nonc2NC(=O)c2cccc(C)c2)cc1OC`, the Inhibition rises from -19.13% to 4.698%.

First: COc1cccc(NC(=O)Cn2c(C)c(C#N)c3ccccc32)c1
Second: CCN(CC)c1cc(C)c2cc(NC(=O)c3cccc(OC)c3)ccc2n1
The Inhibition of the first is higher: 14.16% for the first, -27.53% for the second.

Compared with `Cn1c(=O)c2cc(C(=O)NCCCN3CCCCCC3)sc2c2ccccc21`, `COc1cccc(-c2nn(C)c3sc(C(=O)NCCN4CCN(c5ccccc5F)CC4)cc23)c1` is higher in Inhibition: -13.68% for the first, 60.49% for the second.

Compared with `COc1ccc(CCN2CCC(CN(C)Cc3cnn(-c4ccccc4)c3)CC2)cc1`, `FC(F)(F)c1cccc(CNC2CCN(CCc3ccccc3)CC2)c1` is lower in Inhibition: -0.7856% for the first, -52.87% for the second.

Going from `O=C(NC(c1ccccc1)c1ccc2cccnc2c1O)c1ccccc1` (centres undefined) to `O=C(O)C(=O)O.Oc1ccccc1CN1CCN(C(c2ccccc2)c2ccccc2)CC1`, the Inhibition falls from 59.29% to -3.109%.

Compared with `COCCNC(=O)c1ccc(OC2CCN(Cc3ccc(F)c(F)c3)CC2)c(Cl)c1`, `COc1ccc(CNC2CCN(c3ccc(NC(=O)c4cccc(Cl)c4)cc3)CC2)cc1OC` is lower in Inhibition: 10.52% for the first, -38.21% for the second.

Compared with `O=C(NC1CCCC1)c1ccc(N2CCC(NCc3cccc(C(F)(F)F)c3)CC2)cc1`, `O=C(Nc1ccsc1C(=O)NC1CCCCC1)c1ccc(F)cc1` is higher in Inhibition: -29.41% for the first, -24.81% for the second.

First: CCOc1cc(Br)c(C(C)NC(=O)c2cccc(OC)c2)cc1OCC (centres undefined)
Second: CCOc1cc(Cl)c(C(C)NC(=O)c2cccc(OC)c2)cc1OCC (centres undefined)
The Inhibition of the first is lower: -25.9% for the first, -11.62% for the second.

First: CC(C)=CCN1CCC(C(=O)Nc2ccc(-c3nc4ccccc4[nH]3)cc2)CC1
Second: Cc1ccc(CN2CCC(C(=O)Nc3ccc(-c4cc5ccccc5[nH]4)cc3)CC2)o1
The Inhibition of the first is lower: -41.53% for the first, 45.39% for the second.

First: CCN1CCN(c2cc(C)c3cc(NC(=O)c4ccc(OC)c(OC)c4)ccc3n2)CC1
Second: COc1ccc(C(=O)Nc2nonc2-c2ccc(OC)c(OC)c2)cc1Cl
The Inhibition of the first is lower: -21.17% for the first, 4.722% for the second.

First: Cc1ccc(Cl)cc1N1CCN(CCCNC(=O)C2CCN(c3nc4ccccc4[nH]3)CC2)CC1
Second: Cc1cc(C)c2nc(N3CCC(C(=O)NCCCN4CCC(N5CCCCC5)CC4)CC3)sc2c1
The Inhibition of the first is higher: -53.53% for the first, -56.98% for the second.

Going from `COCCN(C(=O)Cc1cccs1)C(C(=O)NCc1ccc(OC)cc1)c1ccc(C(C)C)cc1` (centres undefined) to `CC(=O)NCCc1nc2ccccc2n1Cc1ccc(C(C)C)cc1`, the Inhibition falls from 3.107% to 0.2505%.

First: Cc1ccc(CSCc2ccc(C(=O)NC3CC3)o2)cc1
Second: Cc1ccc(Cn2c(N3CCC(C(=O)NCc4cccs4)CC3)nc3ccccc32)cc1
The Inhibition of the first is lower: -11.49% for the first, -4.981% for the second.

First: CC(NCc1ccccc1)c1cc(Cl)ccc1O (centres undefined)
Second: Oc1ccc(Cl)cc1CNc1nc2ccccc2[nH]1
The Inhibition of the first is lower: -51.25% for the first, -2.947% for the second.

First: CN1CCN(c2c3c(c(C#N)c4nc5ccccc5n24)CCC3)CC1
Second: CC(C)OCc1cc(CN2CCN(c3cccc(Cl)c3)CC2)c(O)c2ncccc12
The Inhibition of the first is lower: -1.609% for the first, 54.97% for the second.

Compared with `CCOc1ccc(C2N(C)c3ccccc3N2C)cc1`, `COc1ccc(C2N(C)c3ccccc3N2C)cc1` is higher in Inhibition: -19.63% for the first, -12.31% for the second.

Going from `CCOc1cc(Cl)c(C(C)NC(=O)c2ccccc2)cc1OCC` (centres undefined) to `CCOc1ccc(-c2nonc2NC(=O)c2cccc(C)c2)cc1OCC`, the Inhibition falls from 5.189% to 2.223%.

Going from `O=C(c1ccccc1F)N(Cc1ccc(Cl)cc1)c1ccccn1` to `O=C(Nc1nc(-c2ccccn2)cs1)c1ccccc1Br`, the Inhibition rises from -0.1452% to 62.15%.

Going from `O=C(Nc1ccc(CN2CCOCC2)cc1)c1ccc(-c2ccc(Br)cc2)o1` to `O=C(Nc1ccc(N2CCCCC2)c(Cl)c1)c1ccc(Br)o1`, the Inhibition falls from 0.1242% to -27.15%.

Compared with `COc1nc(Nc2ccc(C(C)C)cc2)nc(OC)n1`, `O=C(Nc1ccc(F)c(Cl)c1)Nc1ccc(Cl)c(Cl)c1` is higher in Inhibition: 4.363% for the first, 36.98% for the second.

Compared with `CCN(CC)CCNc1ncnc2c1[nH]c1ccc(Br)cc12`, `Clc1ccc2[nH]c3c(NCCCN4CCOCC4)ncnc3c2c1` is higher in Inhibition: -47.02% for the first, 37.37% for the second.

First: O=C(Nc1ccc(Cl)cc1)N1CCN(c2ccc3nncn3n2)CC1
Second: O=C(Nc1ccc(N2CCN(Cc3ccccc3)CC2)cc1)c1cccs1.O=C(O)C(F)(F)F
The Inhibition of the first is higher: 64.92% for the first, -70.26% for the second.

Compared with `CN(C)c1ccc(-c2nc3cc(N)ccc3[nH]2)cc1`, `CC(C)(C)C(=O)Nc1ccc(C(=O)Nc2cccc(-c3nc4ccccc4[nH]3)c2)cc1` is higher in Inhibition: -41.71% for the first, 18.85% for the second.

First: Cl.Clc1cc(Br)ccc1-c1ccc(CNCC2CCNCC2)o1
Second: CC1CCCCN1CCCNC(=O)c1ccc2c(c1)sc1nc(-c3ccc(F)cc3)cn12 (centres undefined)
The Inhibition of the first is higher: 26.78% for the first, 7.741% for the second.

Compared with `Cc1c(C)n(Cc2ccc(F)cc2)c2ccc(C(=O)NCc3ccco3)cc12`, `CCOc1ccc(-c2nc(NC(=O)c3cccc(S(C)(=O)=O)c3)sc2C)cc1` is higher in Inhibition: -17.08% for the first, 26.25% for the second.

Going from `CCN(CC)c1ccc(NC(=O)c2cccs2)cc1` to `CC(C)(C)c1ccc(C(=O)Nc2nc3ccccc3s2)cc1`, the Inhibition rises from -55.73% to 63.38%.

Going from `CCCC(c1nnnn1C1CCCCC1)N1CCN(C(=O)c2ccco2)CC1.Cl` (centres undefined) to `C=C(C)CCC(C)N1CCC(N2CCC(C(=O)NCCc3ccccc3)CC2)CC1` (centres undefined), the Inhibition rises from -55.52% to -27.27%.

Compared with `CCn1c(SCC(=O)Nc2cc(C(F)(F)F)ccc2Cl)nc2ccccc2c1=O`, `O=C(Nc1cccc(C(F)(F)F)c1)c1cc(Cl)ccc1O` is higher in Inhibition: -35.13% for the first, 41.48% for the second.

Compared with `O=C(Nc1ccc(Cl)cc1C(=O)Nc1ccncc1)c1ccc(Cl)cc1Cl`, `O=C(NCC1Cc2cccc(-c3ccncc3)c2O1)c1csc2c1CCCC2` (centres undefined) is higher in Inhibition: -3.564% for the first, 13.55% for the second.

Compared with `CCOc1cccc2sc(N(Cc3cccnc3)C(=O)C3CCCCC3)nc12`, `CC(O)(c1ccc(Cl)cc1)C(CN1CCCCC1)c1ccccc1.Cl` (centres undefined) is higher in Inhibition: -38.34% for the first, 15.77% for the second.

First: CC1CC(C)CN(C(=O)c2ccc(Cl)cc2Cl)C1 (centres undefined)
Second: CC(C)(C)CC(C)(C)NCC(O)COc1ccc2c(c1)CCC2.Cl (centres undefined)
The Inhibition of the first is higher: -45.44% for the first, -49.34% for the second.

First: COc1ccccc1CNC(=O)C1c2ccccc2C(=O)N(CC(C)C)C1c1cccs1 (centres undefined)
Second: CCOc1ccccc1CNC(=O)C1c2ccccc2C(=O)N(CC(C)C)C1c1cccs1 (centres undefined)
The Inhibition of the first is higher: 58.94% for the first, -30.75% for the second.

Compared with `CCOc1ccc(/C=C/c2nc(=O)c3ccccc3o2)cc1`, `CCN(CC)CCCNc1nc(-c2ccc(Cl)cc2)nc2ccccc12` is lower in Inhibition: -0.2946% for the first, -30.51% for the second.

Going from `CCCCc1ccc(NS(=O)(=O)c2cc3c4c(c2)CCN4C(=O)CC3)cc1` to `CCCN(CCC)CCCNC(=O)c1cc2c(-c3ccc(OC)c(OC)c3)nn(C)c2s1`, the Inhibition rises from 4.064% to 32.69%.

Going from `CCCc1c(C)nc2ccccc2c1O` to `C=CCc1c(C)nc2ccccc2c1O`, the Inhibition rises from -14.82% to -10.8%.

Going from `COc1ccc(C2Sc3ccccc3N=C3C2=C(O)c2ccccc23)cc1` (centres undefined) to `CN1c2ccccc2N(C)C1c1ccc2c(c1)OCO2`, the Inhibition falls from 19.55% to -58.41%.
